Source: US9963442B2, “Pyridones as herbicides” (E I DU PONT DE NEMOURS AND COMPANY, priority 2014, dated 2018)

Key:
Type in all cases: in vivo
[1] = test system: Italian ryegrass (Lolium multiflorum); assay: Test A preemergence, directed soil spray; conditions: approx. 10 days
Description: (§1) Seeds of plant species selected from barnyardgrass (Echinochloa crus-galli), kochia (Kochia scoparia), ragweed (common ragweed, Ambrosia elatior), Italian ryegrass (Lolium multiflorum), giant foxtail (Setaria faberii), and pigweed (Amaranthus retroflexus) were planted into a blend of loam soil and sand and treated preemergence with a directed soil spray using test chemicals formulated in a non-phytotoxic solvent mixture which included a surfactant. At the same time, plants selected from these weed species and also wheat (Triticum aestivum), corn (Zea mays), blackgrass (Alopecurus myosuroides), and galium (catchweed bedstraw, Galium aparine) were planted in pots containing the same blend of loam soil and sand and treated with postemergence applications of test chemicals formulated in the same manner. Plants ranged in height from 2 to 10 cm and were in the one- to two-leaf stage for the postemergence treatment. Treated plants and untreated controls were maintained in a greenhouse for approximately 10 days, after which time all treated plants were compared to untreated controls and visually evaluated for injury. Plant response ratings, summarized in Table A, are based on a 0 to 100 scale where 0 is no effect and 100 is complete control. A dash (-) response means no test result.

[2] = test system: barnyardgrass (Echinochloa crus-galli); assay: Test A preemergence, directed soil spray; conditions: approx. 10 days
Description: as §1

[3] = test system: ragweed (common ragweed, Ambrosia elatior); assay: Test A preemergence, directed soil spray; conditions: approx. 10 days
Description: as §1

[4] = test system: pigweed (Amaranthus retroflexus); assay: Test A preemergence, directed soil spray; conditions: approx. 10 days
Description: as §1

[5] = test system: kochia (Kochia scoparia); assay: Test A preemergence, directed soil spray; conditions: approx. 10 days
Description: as §1

[6] = test system: giant foxtail (Setaria faberii); assay: Test A preemergence, directed soil spray; conditions: approx. 10 days
Description: as §1

[7] = test system: blackgrass (Alopecurus myosuroides); assay: Test A postemergence application; conditions: approx. 10 days
Description: as §1

[8] = test system: wheat (Triticum aestivum); assay: Test A postemergence application; conditions: approx. 10 days
Description: as §1

[9] = test system: Italian ryegrass (Lolium multiflorum); assay: Test A postemergence application; conditions: approx. 10 days
Description: as §1

[10] = test system: barnyardgrass (Echinochloa crus-galli); assay: Test A postemergence application; conditions: approx. 10 days
Description: as §1

[11] = test system: ragweed (common ragweed, Ambrosia elatior); assay: Test A postemergence application; conditions: approx. 10 days
Description: as §1

[12] = test system: pigweed (Amaranthus retroflexus); assay: Test A postemergence application; conditions: approx. 10 days
Description: as §1

[13] = test system: kochia (Kochia scoparia); assay: Test A postemergence application; conditions: approx. 10 days
Description: as §1

[14] = test system: galium (catchweed bedstraw, Galium aparine); assay: Test A postemergence application; conditions: approx. 10 days
Description: as §1

[15] = test system: corn (Zea mays); assay: Test A postemergence application; conditions: approx. 10 days
Description: as §1

[16] = test system: giant foxtail (Setaria faberii); assay: Test A postemergence application; conditions: approx. 10 days
Description: as §1

[17] = test system: sedge, umbrella (small-flower umbrella sedge, Cyperus difformis); assay: Test B flooded paddy test; set-up: key: 0 = no effect, 100 = complete control; conditions: Flood, 250 g ai/ha applied to paddy water at 2-leaf stage; visually evaluated after 13 to 15 days; scale 0 (no effect) to 100 (complete control)
Procedure: (§2) Plant species in the flooded paddy test selected from rice (Oryza sativa), sedge, umbrella (small-flower umbrella sedge, Cyperus difformis), ducksalad (Heteranthera limosa), and barnyardgrass (Echinochloa crus-galli) were grown to the 2-leaf stage for testing. At time of treatment, test pots were flooded to 3 cm above the soil surface, treated by application of test compounds directly to the paddy water, and then maintained at that water depth for the duration of the test. Treated plants and controls were maintained in a greenhouse for 13 to 15 days, after which time all species were compared to controls and visually evaluated. Plant response ratings, summarized in Table B, are based on a scale of 0 to 100 where 0 is no effect and 100 is complete control. A dash (-) response means no test result.

[18] = test system: barnyardgrass (Echinochloa crus-galli); assay: Test B flooded paddy test; set-up: key: 0 = no effect, 100 = complete control; conditions: Flood, 250 g ai/ha applied to paddy water at 2-leaf stage; visually evaluated after 13 to 15 days; scale 0 (no effect) to 100 (complete control)
Procedure: as §2

[19] = test system: ducksalad (Heteranthera limosa); assay: Test B flooded paddy test; set-up: key: 0 = no effect, 100 = complete control; conditions: Flood, 250 g ai/ha applied to paddy water at 2-leaf stage; visually evaluated after 13 to 15 days; scale 0 (no effect) to 100 (complete control)
Procedure: as §2

[20] = test system: rice (Oryza sativa); assay: Test B flooded paddy test; set-up: key: 0 = no effect, 100 = complete control; conditions: Flood, 250 g ai/ha applied to paddy water at 2-leaf stage; visually evaluated after 13 to 15 days; scale 0 (no effect) to 100 (complete control)
Procedure: as §2

O=c1cccc(Oc2ncc(Cl)cn2)n1-c1cccc(C(F)(F)F)c1 [Compound 2, 6-[(5-chloro-2-pyrimidinyl)oxy]-1-[3-(trifluoromethyl)phenyl]-2(1H)-pyridinone]
Plant response rating (0 to 100 scale, 0 no effect, 100 complete control), Ryegrass, Italian ([1]; 125 g ai/ha): 0
Plant response rating (0 to 100 scale, 0 no effect, 100 complete control), Ryegrass, Italian ([1]; 500 g ai/ha): 0
Plant response rating (0 to 100 scale, 0 no effect, 100 complete control), Barnyardgrass ([2]; 125 g ai/ha): 0
Plant response rating (0 to 100 scale, 0 no effect, 100 complete control), Barnyardgrass ([2]; 500 g ai/ha): 0
Plant response rating (0 to 100 scale, 0 no effect, 100 complete control), Ragweed ([3]; 125 g ai/ha): 0
Plant response rating (0 to 100 scale, 0 no effect, 100 complete control), Ragweed ([3]; 500 g ai/ha): 0
Plant response rating (0 to 100 scale, 0 no effect, 100 complete control), Pigweed ([4]; 125 g ai/ha): 0
Plant response rating (0 to 100 scale, 0 no effect, 100 complete control), Pigweed ([4]; 500 g ai/ha): 20
Plant response rating (0 to 100 scale, 0 no effect, 100 complete control), Kochia ([5]; 125 g ai/ha): 0
Plant response rating (0 to 100 scale, 0 no effect, 100 complete control), Kochia ([5]; 500 g ai/ha): 30
Plant response rating (0 to 100 scale, 0 no effect, 100 complete control), Foxtail, Giant ([6]; 125 g ai/ha): 0
Plant response rating (0 to 100 scale, 0 no effect, 100 complete control), Foxtail, Giant ([6]; 500 g ai/ha): 90
Plant response rating (0 to 100 scale, 0 no effect, 100 complete control), Blackgrass ([7]; 125 g ai/ha): 0
Plant response rating (0 to 100 scale, 0 no effect, 100 complete control), Blackgrass ([7]; 500 g ai/ha): 0
Plant response rating (0 to 100 scale, 0 no effect, 100 complete control), Wheat ([8]; 125 g ai/ha): 0
Plant response rating (0 to 100 scale, 0 no effect, 100 complete control), Wheat ([8]; 500 g ai/ha): 20
Plant response rating (0 to 100 scale, 0 no effect, 100 complete control), Ryegrass, Italian ([9]; 125 g ai/ha): 0
Plant response rating (0 to 100 scale, 0 no effect, 100 complete control), Ryegrass, Italian ([9]; 500 g ai/ha): 0
Plant response rating (0 to 100 scale, 0 no effect, 100 complete control), Barnyardgrass ([10]; 125 g ai/ha): 0
Plant response rating (0 to 100 scale, 0 no effect, 100 complete control), Barnyardgrass ([10]; 500 g ai/ha): 0
Plant response rating (0 to 100 scale, 0 no effect, 100 complete control), Ragweed ([11]; 125 g ai/ha): 0
Plant response rating (0 to 100 scale, 0 no effect, 100 complete control), Ragweed ([11]; 500 g ai/ha): 0
Plant response rating (0 to 100 scale, 0 no effect, 100 complete control), Pigweed ([12]; 125 g ai/ha): 30
Plant response rating (0 to 100 scale, 0 no effect, 100 complete control), Pigweed ([12]; 500 g ai/ha): 80
Plant response rating (0 to 100 scale, 0 no effect, 100 complete control), Kochia ([13]; 125 g ai/ha): 30
Plant response rating (0 to 100 scale, 0 no effect, 100 complete control), Kochia ([13]; 500 g ai/ha): 90
Plant response rating (0 to 100 scale, 0 no effect, 100 complete control), Galium ([14]; 125 g ai/ha): 20
Plant response rating (0 to 100 scale, 0 no effect, 100 complete control), Galium ([14]; 500 g ai/ha): 60
Plant response rating (0 to 100 scale, 0 no effect, 100 complete control), Corn ([15]; 125 g ai/ha): 0
Plant response rating (0 to 100 scale, 0 no effect, 100 complete control), Corn ([15]; 500 g ai/ha): 20
Plant response rating (0 to 100 scale, 0 no effect, 100 complete control), Foxtail, Giant ([16]; 125 g ai/ha): 0
Plant response rating (0 to 100 scale, 0 no effect, 100 complete control), Foxtail, Giant ([16]; 500 g ai/ha): 60
Plant response rating, Sedge, Umbrella [17]: 0
Plant response rating, Barnyardgrass [18]: 0
Plant response rating, Ducksalad [19]: 0
Plant response rating, Rice [20]: 0
